Measurements: paper PMC10721329, “Quisinostat is a brain-penetrant radiosensitizer in glioblastoma” (JCI Insight, 2023)
Several values for one entry are separate records, joined by “and”; a condition that tells them apart may be missing. Identical values can stand only once.

Tests used:
BT145 cells = test: Intracellular uptake of QST and level in media, with or without washout (LC-MS/MS); type: cell-based, human
Protocol: To further understand the kinetics of drug-target engagement in GSCs, we harvested media and BT145 cells at 0, 2, 6, 10, and 24 hours with or without removal of QST (75 nM). At each time point, we measured the intracellular drug levels and concentrations in the cell media. With continuous drug exposure (no washout), the intracellular levels of QST in BT145 increased throughout the incubation period, reaching equilibrium by 10 hours (Supplemental Figure 2A). […] By contrast, in washout experiments (performed 2 hours after spiking cell media with the drug), minimal QST levels were measured intracellularly after drug removal at all time points (Supplemental Figure 2B).
QST concentrations in specimens were measured using reverse-phase LC on the AB SCIEX QTRAP6500+ LC-MS/MS system by operating electrospray in the positive ion mode. For liquid chromatographic separation, gradient elution was performed using a Phenomenex Kinetex F5 100 Å column (100 × 2.1 mm, 2.6 μm). The initial composition of the mobile phase was 70% phase A (0.1% formic acid in water) and 30% phase B (0.1% formic acid in 1:1 acetonitrile/methanol) with a 0.35 mL/min flow rate. Gradient elution was achieved as follows: mobile phase (B) was maintained at 30% from 0 to 0.3 minutes, increased to 95% from 0.3 to 0.8 minutes, maintained at 95% from 0.8 to 2.5 minutes, and decreased to 30% from 2.5 to 2.8 minutes. The total run time was 3.5 minutes. The internal standard used in this study was D8-infigratinib. The retention times for QST and D8-infigratinib were 1.6 and 1.8 minutes, respectively. Mass-to-charge ratio transitions were as follows: 395.20 → 144.00 (QST) and 568.08 → 321.00 (D8-infigratinib). LC-MS/MS analysis was performed using an Analyst 1.7 Chromatographic Data System. See Supplemental Methods for detailed PK experiments. […]
Cell Media and Lysate Sample Preparation
Cell media and lysates were thawed at room temperature. An aliquot of 20 µL of cell media or lysate was transferred into a micro centrifuge tube followed by protein precipitation with 60 µL of IS-containing methanol precipitation solution. The mixture was vortex-mixed for 10 s and centrifuged at 12000 g at 4 °C for 10 min. A 50-µL aliquot of the supernatant was transferred to an autosampler vial, and 5 µL was injected into the LC-MS/MS system for […]

[1] = Stability in mouse plasma at 37°C; type: in vitro ADME; conditions: for [QST] mouse plasma at 37C, raw response / [QST], % of control: replicates; for [QST], % of control: mouse plasma
Protocol: Hydroxamic acid–based compounds have been reported to display poor stability and high plasma clearance due to the presence of arylesterases and carboxylesterases in rodent blood ([34]). Therefore, we measured the stability of QST in mouse plasma and brain to determine whether drug degradation occurred during our sample preparations and equilibrium dialyses for the determination of unbound drug level (performed at 37°C). […] QST degradation was also observed in mouse brain homogenate (Figure 6B). However, perfusion of mice before brain collection prevented rapid drug degradation in the brain matrix. […] Degradation of QST can also be constrained if plasma and brain samples are processed at 4°C (Supplemental Figure 4A). All subsequent sample preparations were therefore performed on ice-cold baths to avoid degradation of QST in our PK analyses. […] The observed stability is probably due to the absence of esterases in human matrices, which are responsible for degradation of QST ([34]). Because we employed QST in several in vitro studies (Figures 1–4), the stability of the molecule was also tested in the cell media used to culture GSCs (neurobasal medium; see Methods).
Stability Study in Mouse Plasma, Mouse Brain, Human Plasma, Human Brain, and Neural […]
The stability of QST was determined in BALB/c mouse plasma, male nude athymic perfused and nonperfused mouse brain homogenate (1:9 w/v of PBS; pH 7.4), human brain (obtained from VRL Eurofins) homogenate (1:4 w/v of PBS; pH 7.4), pooled human plasma (Innovative Research), and neurobasal media. QST stock solutions (1 mM) were prepared in acetonitrile, subsequently diluted in a 40% methanol mixture, and added t o the matrices to make […]
[…] Then 50 or 30 µL of either plasma or brain homogenate containing QST were aliquoted into 1.5-mL microcentrifuge tubes (Eppendorf) and were incubated at either 4 °C or 37 °C for 0, 2, 4, 6, 12, or 24 hours (n = 3 at each time point).
The stability of QST in mouse plasma was also tested at 0, 2, 8, 16, or 24 hours (n = 3 at each time point) in the presence of esterase inhibitors: 0.25 mM BNPP, 1mM dithiobis(2-nitrobenzoic acid) (DTNB), or 1.25 mM phenylmethylsulfonyl fluoride (PMSF). Plasma and brain homogenate samples were stored at −80 °C until LC-MS/MS analysis. […]

## Cn1cc(CNCC2CCN(c3ncc(C(=O)NO)cn3)CC2)c2ccccc21 [QST, quisinostat]
BT145 cells; BT145, 75 nM QST, continuous exposure
  time to equilibrium of intracellular QST level: ≤ 10 h
BT145 cells; no washout, 2 hrs
  Average Cell uptake: 7.31 nmol/g protein
  Media: 62.85 nM
  Media at cell collection: 52.25 nM
BT145 cells; no washout, 6 hrs
  Average Cell uptake: 10.61 nmol/g protein
  Media: 67.45 nM
  Media at cell collection: 45.30 nM
BT145 cells; no washout, 10 hrs
  Average Cell uptake: 11.62 nmol/g protein
  Media: 65.15 nM
  Media at cell collection: 39.70 nM
BT145 cells; no washout, 24 hrs
  Average Cell uptake: 11.78 nmol/g protein
  Media: 64.10 nM
  Media at cell collection: 30.75 nM
BT145 cells; with washout, 0 hrs
  Average Cell uptake: 7.31 nmol/g protein
  Media: 62.85 nM
  Media at cell collection: 52.25 nM
BT145 cells; with washout, 2 hrs
  Average Cell uptake: 2.58 nmol/g protein
  Media: 64.35 nM
  Media at cell collection: 3.665 nM
BT145 cells; with washout, 6 hrs
  Average Cell uptake: 3.23 nmol/g protein
  Media: 63.40 nM
  Media at cell collection: 5.31 nM
BT145 cells; with washout, 10 hrs
  Average Cell uptake: 2.72 nmol/g protein
  Media: 66.40 nM
  Media at cell collection: 5.605 nM
BT145 cells; with washout, 24 hrs
  Average Cell uptake: 3.95 nmol/g protein
  Media: 58.55 nM
  Media at cell collection: 3.57 nM
[1]; 500 nM, Time 0
  [QST] mouse plasma at 37C, raw response, Average: 1.911
  [QST] mouse plasma at 37C, raw response: 1.823 and 1.9096 and 2.002
[1]; 500 nM, Time 1
  [QST] mouse plasma at 37C, raw response, Average: 0.7582
  [QST] mouse plasma at 37C, raw response: 0.7296 and 0.7817 and 0.7634
[1]; 500 nM, Time 2
  [QST] mouse plasma at 37C, raw response, Average: 0.2892
  [QST] mouse plasma at 37C, raw response: 0.2668 and 0.314 and 0.2868
[1]; 500 nM, Time 4
  [QST] mouse plasma at 37C, raw response, Average: 0.02578
[1]; 500 nM, Time 8
  [QST] mouse plasma at 37C, raw response, Average: 0.00189
  [QST] mouse plasma at 37C, raw response: 0.00167 and 0.04867 and 0.00211
[1]; BALB/c, mouse, plasma, 37°C, 8-hour incubation
  half-life: ~1 h
[1]; Time 4
  [QST] mouse plasma at 37C, raw response: 0.02689 and 0.02585 and 0.0246
[1]; 10 nM, Time 6 hrs
  [QST], % of control: 2.9% and 3.1% (2×)
[1]; 10 nM, Time 12 hrs
  [QST], % of control: 2.6% and 2% and 2.1%
[1]; 100 nM, Time 6 hrs
  [QST], % of control: 1.4% (2×) and 1.3%
[1]; 100 nM, Time 12 hrs
  [QST], % of control: 0.1% (2×) and 2.5%
